Data on two compounds can be found in patent US20150313913A1, “POSITIVE ALLOSTERIC MODULATORS OF THE GABA-A RECEPTOR IN THE TREATMENT OF AUTISM” (UNIVERSITY OF WASHINGTON THROUGH ITS CENTER FOR …, priority 2013, published 2015).

“Also recorded” adds a separate entry of the source.

In data set [1] the test system is BTBR mice. Description: Context-dependent fear conditioning test. It counts as in vivo. An excerpt:
The contextual fear-conditioning chamber was a square arena (25×25 cm) with clear PLEXIGLAS™ walls and a metal grid floor connected to a circuit board that delivered shocks to the metal grid (COULBOURN INSTRUMENTS™). An analog camera was attached on top of the chamber. The camera and the circuit board were connected to a personal computer, and its software (FREEZE FRAME™ 2.0, ACTIMETRICS™) controlled the circuit and recorded the data. The chamber was cleaned with 70% ethanol and wiped with paper towels before each session. In the habituation session, a test mouse was placed in the chamber and allowed to explore for 2 min^66-69. Immediately after habituation, the test mouse received a single mild foot shock (2 s, 0.5 mA). After staying in the chamber one more min, the mouse was removed from the chamber. For the 30-min short-term memory test, the mouse was returned to the context 30 min after the end of the training session. For 24-hr long-term memory test, the mouse was returned to the context 24 hr after the training session. The movement of mice was also recorded by a USB webcam (LIFECAM™ HD-6000, MICROSOFT™) and PC-based video capture software (WINAVI™ Video Capture, ZJ MEDIA DIGITAL TECHNOLOGY™) for 2 min. The recorded video file was further analyzed by off-line video tracking software (ETHOVISION™ XT 7.0, NOLDUS TECHNOLOGY™). The freezing scores were calculated by dividing the test session into 1 min bouts and averaging together all 2 min for each animal. All data shown.
Freezing behavior is defined as the period during which the velocity of the test mouse is less than 1.75 cm/s, and non-freezing behavior is defined as the period during which the velocity of the mouse is greater than 2 cm/s.

Data set [2] deals with GABA-A α2, α3 and α5 subtypes. The following applies: cited from earlier work.
For a further data set, the target named is T1, GABA-A α1 subtype (Homo sapiens, UniProt P14867+P18507).
T1 sequence (P14867 28-456): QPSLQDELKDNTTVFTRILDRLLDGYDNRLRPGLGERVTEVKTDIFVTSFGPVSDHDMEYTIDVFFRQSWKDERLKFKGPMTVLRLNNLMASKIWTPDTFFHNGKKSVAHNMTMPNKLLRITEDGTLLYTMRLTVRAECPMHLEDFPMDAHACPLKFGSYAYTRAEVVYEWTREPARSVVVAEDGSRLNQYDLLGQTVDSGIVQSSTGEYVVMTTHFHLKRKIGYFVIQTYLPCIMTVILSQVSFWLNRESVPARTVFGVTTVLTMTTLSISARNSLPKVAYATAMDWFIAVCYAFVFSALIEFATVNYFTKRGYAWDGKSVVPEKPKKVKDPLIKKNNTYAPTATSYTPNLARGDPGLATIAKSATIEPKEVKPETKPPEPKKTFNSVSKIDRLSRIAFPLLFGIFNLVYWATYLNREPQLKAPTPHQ
T1 sequence (P18507 40-467 limits assumed): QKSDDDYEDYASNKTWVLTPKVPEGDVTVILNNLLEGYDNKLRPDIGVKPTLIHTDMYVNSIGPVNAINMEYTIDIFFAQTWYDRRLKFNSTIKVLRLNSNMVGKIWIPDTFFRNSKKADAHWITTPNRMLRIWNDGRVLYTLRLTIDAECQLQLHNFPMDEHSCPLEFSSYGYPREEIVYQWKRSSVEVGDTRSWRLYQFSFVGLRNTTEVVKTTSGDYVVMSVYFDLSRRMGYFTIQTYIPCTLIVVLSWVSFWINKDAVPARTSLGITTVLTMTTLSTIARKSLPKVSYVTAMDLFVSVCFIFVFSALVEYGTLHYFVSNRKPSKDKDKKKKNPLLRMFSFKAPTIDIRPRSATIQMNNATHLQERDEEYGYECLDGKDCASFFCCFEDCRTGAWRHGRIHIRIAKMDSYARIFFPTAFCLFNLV
T1 sequence (P28472 26-473 partner): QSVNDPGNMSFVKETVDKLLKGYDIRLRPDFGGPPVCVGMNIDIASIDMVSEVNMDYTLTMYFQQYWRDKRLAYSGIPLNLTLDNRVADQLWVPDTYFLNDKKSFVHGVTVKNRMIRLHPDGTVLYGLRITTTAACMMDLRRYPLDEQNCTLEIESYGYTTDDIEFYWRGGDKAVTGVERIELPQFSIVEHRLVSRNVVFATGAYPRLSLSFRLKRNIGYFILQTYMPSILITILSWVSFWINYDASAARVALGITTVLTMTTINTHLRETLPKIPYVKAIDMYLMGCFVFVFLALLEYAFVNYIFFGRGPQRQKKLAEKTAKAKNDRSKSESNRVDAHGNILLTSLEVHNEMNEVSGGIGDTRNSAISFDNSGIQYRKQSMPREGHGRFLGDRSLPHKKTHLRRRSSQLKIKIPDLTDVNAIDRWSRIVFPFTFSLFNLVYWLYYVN
The following applies: cited from earlier work.

The conditions of data set [3]: cited from earlier work.
Data set [4] deals with BTBR mice. Put plainly: Open-field reciprocal social interaction test. It counts as in vivo. The following applies: for nose-to-nose interaction with stranger mouse / total (reciprocal) social interaction with stranger mouse: low dose (0.05 mg/kg), Pre/CLZ/Post at one-week intervals, 0.05 mg/kg. On the procedure: (§1) A test mouse and an age- and gender-matched stimulus mouse with a mixed C57BL/6J×129 genetic background were introduced in an open field arena (50×50 cm). Mice were socially naïve with each other. The social interactions of mice were recorded by USB webcam (LifeCam HD-6000, Microsoft) and PC-based video capture software (WinAVI Video Capture, ZJ Media Digital Technology) for 10 min.

For data set [5], the system named is C57BL/6J mice. Put plainly: Open-field reciprocal social interaction test. The following applies: same treatment. The class given is in vivo. The protocol:
as §1

Data set [6] concerns BTBR mice. Put plainly: Open field test. The class given is in vivo. On the procedure:
(§2) Open field test was performed as previously described (Han et al., 2012). 50×50 cm square open field arena with non-transparent white Plexiglas was used in this study. During the 10 min of trial, total distance moved, circling behavior (a complete 360-degree turn of nose angle with respect to the body center) and time in center (20×20 cm imaginary square) were measured by the video-tracking software (EthoVision XT 8.5, Noldus Technology).

For data set [7], the system named is C57BL/6J mice. Put plainly: Open field test. It counts as in vivo. The protocol:
as §2

With `Cn1ncnc1COc1nn2c(-c3cc(F)ccc3F)nnc2cc1C(C)(C)C` [L-838,417], in the data set with BTBR mice [1] (0.05 mg/kg), the “long-term (24 h) memory” value is on record as “improved” and the “short-term (30 min) memory” value was “improved”. In the data set on BTBR mice [1] (0.05 mg/kg 30 min before training session and 24-h memory session), the “memory of the spatial context” value was “substantially improved”. Moreover, the “spatial learning behavior (FIG. 13B legend)” value in the data set with BTBR mice [1] (0.05 mg/kg, legend body prints DS mice, title BTBR mice) is “substantially rescued”. For the same compound, the “action at α2, α3 and α5 subtypes” value in data set [2] is “partial agonist”. In addition, the “action at the α1 subtype” value at GABA-A α1 subtype is given as “antagonist”. Further, in data set [3] (drug discrimination), the “substitution for chlordiazepoxide in animals” value was “substitutes for the anxiolytic benzodiazepine chlordiazepoxide” and the “substitution for zolpidem in animals” value is reported as “not for the hypnotic imidazopyridine drug zolpidem”. In addition, the “sedative effects in animal studies” value in data set [3] (even at high doses) is “no sedative effects”.

Consider `O=C1CN=C(c2ccccc2Cl)c2cc([N+](=O)[O-])ccc2N1` [Clonazepam], for which, in the data set with BTBR mice [4], the “nose-to-nose interaction with stranger mouse” value is on record as “significantly enhanced” and the “total (reciprocal) social interaction with stranger mouse” value was “significantly enhanced”. For the same compound, in the data set with BTBR mice [4] (listed as CLZ), the “nose-to-nose interaction with stranger mouse” value is on record as “reversibly increases” and the “total (reciprocal) social interaction with stranger mouse” value is “reversibly increases”. For the same compound, the “stereotyped circling behavior in open field with stranger mouse” value with BTBR mice [4] (low dose (FIG. 8C)) is “reduces”. In the data set on C57BL/6J mice [5], the “social interaction and stereotyped behavior” value is “unaffected”. In the data set on C57BL/6J mice [5] (listed as CLZ), the “social interaction and stereotyped behavior” value is given as “no significant effect”. The “visits to center of open field (indicator of abnormally low anxiety)” value with BTBR mice [6] (0.05 mg/kg) is recorded as “changed toward the values for C57BL/6J mice”. Further, the “locomotor activity under chronic low dose” value in the data set on BTBR mice [6] (0.05 mg/kg daily for 14 days) is recorded as “did not cause any increase in locomotor activity; also recorded: did not have any effect”. The “tolerance to sedative effect (locomotor activity Day 14 vs Day 1)” value in the data set on BTBR mice [6] (1 mg/kg (high dose) for 14 days) is recorded as “significantly increased locomotor activity; also recorded: caused significant tolerance”. The “locomotor activity on Day 14 compared to Day 1” value in the data set on BTBR mice [6] (1 mg/kg for 14 days) came to 222±42%. For the same compound, in the data set with BTBR mice [6] (single injection 0.05 mg/kg), the “hyperactivity, total distance moved” value is “significantly reduced” and the “stereotyped circling behavior, number of 360° rotations” value is given as “significantly reduced”. Besides, the “anxiety-like behavior: avoidance of the center of an open field” value with C57BL/6J mice [7] (low doses of clonazepam) is “little effect”. Further, the “hyperactivity (total distance moved) and circling behavior” value in the data set on C57BL/6J mice [7] (low-dose clonazepam) is “unaffected”. Also, the “short-term and long-term memory” value in the data set on BTBR mice [1] (0.0125 mg/kg) was “no significant effects”. For the same compound, in the data set on BTBR mice [1] (0.05 mg/kg), the “long-term (24 h) memory” value is “improved” and the “short-term (30 min) memory” value is recorded as “improved”. For the same compound, the “short-term and long-term memory” value in the data set with BTBR mice [1] (0.1 mg/kg) is reported as “no significant effects”. In addition, in the data set on BTBR mice [1] (daily 0.05 mg/kg for 14 days), the “context-dependent fear memory on Day 1 and Day 14” value was “improved”; the “tolerance to effects on cognitive deficit” value is on record as “does not cause tolerance”. Also, the “spatial learning in context-dependent fear conditioning” value in the data set with BTBR mice [1] (low-dose CLZ (FIG. 10)) was “rescued”.
